According to patent US12636313B2, “Nutraceutical or pharmaceutical composition comprising iron pyrophosphate for treating and/or preventing iron deficiency conditions or diseases” (NEILOS S.R.L., priority 2019, dated 2026):

Key:
[1] = after 120 minutes in sham gastric environment, 0.1 M HCl, 37° C., 75 rpm, six replicates
Procedure: 1 g of sample was weighed and introduced into the container of the dissolving apparatus containing 900 mL of 0.1 M HCl. The dissolution was performed for 2 h at 37° C. and 75 rpm. After dissolution, 1 mL of sample was diluted to 50 mL with 0.1 M HCl. The preparation was performed in six replicates for each sample.

[2] = system: subjects with advanced cancer and plasma iron levels below 60 μg/dL; details: 30 mg/day, 30-day treatment, 42 subjects with advanced cancer; cited from earlier work

In the case of O=P([O-])([O-])OP(=O)([O-])[O-].O=P([O-])([O-])OP(=O)([O-])[O-].O=P([O-])([O-])OP(=O)([O-])[O-].[Fe+3].[Fe+3].[Fe+3].[Fe+3] [iron pyrophosphate as such, iron pyrophosphate], the “amount of iron released” value [1] is given as 7.5 g per 100 g of formulation, the ferritinaemia level [2] is given as “enhanced” and the haemoglobinaemia level [2] is given as “enhanced”. The side effects [2] was “without appearance of side effects” and the sideraemia level [2] was “enhanced”.
